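Dose response: 5 concentrations. Exposure: 48 h. Format: 96-well plates. Endpoint: linear interpolation; highest concentration if not reached. At the GI50, growth is halved.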 The source made the active and inactive calls. Rule as the data show it: active = GI50 up to about 1.1 µM and inactive = higher. A value given as a limit tells only on which side of the number the result lay.

Some test systems named below: NCI/ADR-RES; OVCAR-4; SK-MEL-5; HCT-15; SK-MEL-28; UACC-257; SF-295; SW-620; CAKI-1; COLO 205; SF-268; MCF7; SK-OV-3; NCI-H226; SNB-75; HCT-116; K562; NCI-H460; LOX IMVI; A498.
Holding throughout (assay): growth of human tumour cells (NCI), 48 h

Regarding `CN1c2ccccc2C(=O)NC12CCN(CCCC(=O)c1ccc(F)cc1)CC2`, the GI50 in the assay on NCI/ADR-RES was > 100 µM (inactive); in the assay on OVCAR-4, 87.3 µM (inactive); with SK-MEL-5, 26.1 µM (inactive); with HCT-15, greater than 100 µM; in the assay on SK-MEL-28, 70.1 µM (inactive); in the assay with UACC-257, 29 µM (inactive). Moreover, the GI50 in the assay on SF-295 is 73.5 µM (inactive); in the assay with SW-620, 50.4 µM (inactive); in the assay on CAKI-1, 82.4 µM (inactive); in the assay on COLO 205, 16.3 µM (inactive); in the assay on SF-268 it was 17.8 µM (inactive); with MCF7 it was 55 µM (inactive). The GI50 in the assay on SK-OV-3 was > 100 µM (inactive); with NCI-H226, > 100 µM (inactive); in the assay on SNB-75, 71.6 µM (inactive); in the assay with HCT-116, 44.7 µM (inactive); in the assay with K562, 25.9 µM (inactive).

Regarding `Cc1cc(S(=O)(=O)Nc2nc(Nc3ccccc3)n[nH]2)c(SSc2cc(Cl)c(C)cc2S(=O)(=O)Nc2nc(Nc3ccccc3)n[nH]2)cc1Cl`, the GI50 with NCI/ADR-RES was > 100 µM (inactive); with NCI-H460, > 100 µM (inactive); in the assay with OVCAR-4 it was > 100 µM (inactive); in the assay with LOX IMVI, > 100 µM (inactive); in the assay with SK-MEL-5 it was > 100 µM (inactive); in the assay on HCT-15, greater than 100 µM. The GI50 in the assay on SK-MEL-28 is > 100 µM (inactive); in the assay on UACC-257 it was > 100 µM (inactive); in the assay with SF-295, > 100 µM (inactive); in the assay on SW-620, > 100 µM (inactive); with CAKI-1, 90.4 µM (inactive); in the assay with COLO 205, > 100 µM (inactive). Besides, the GI50 in the assay on SF-268 was 86.7 µM (inactive); in the assay with MCF7, > 10 µM (inactive); in the assay with SK-OV-3, > 100 µM (inactive); in the assay on SNB-75, > 100 µM (inactive); in the assay with HCT-116, > 100 µM (inactive); in the assay on K562, 32.6 µM (inactive).

Take `COc1cccc(C2C(C(=O)O)=C(CO)Oc3cc4c(cc32)OCO4)c1OC` (stereo not drawn): the GI50 in the assay on NCI-H460 was > 100 µM (inactive); in the assay with LOX IMVI, > 100 µM (inactive); with SK-MEL-5 it was > 100 µM (inactive); in the assay on HCT-15, greater than 100 µM; in the assay with SK-MEL-28 it was > 100 µM (inactive); in the assay with A498 it was > 100 µM (inactive). The GI50 in the assay on SF-295, in the assay with SW-620, in the assay with CAKI-1, with COLO 205, in the assay with SF-268 and with SK-OV-3 was > 100 µM (inactive) throughout. Also, the GI50 in the assay with NCI-H226, with SNB-75 and with K562 was > 100 µM (inactive) throughout.

As for `O=C(OCc1ccccc1)C(Cc1ccccc1)N(Cc1ccccc1)Cc1ccccc1` (stereo not drawn), the GI50 was 35.1 µM (inactive) in the assay with NCI-H460; 28.8 µM (inactive) in the assay with OVCAR-4; 5.94 µM (inactive) with SK-MEL-5; 43.7 µM in the assay on HCT-15; > 100 µM (inactive) with SK-MEL-28; > 100 µM (inactive) with A498. The GI50 with UACC-257 is 9.42 µM (inactive); with SF-295, > 100 µM (inactive); in the assay on SW-620, > 100 µM (inactive); in the assay with CAKI-1 it was > 100 µM (inactive); in the assay on COLO 205, > 100 µM (inactive); in the assay on SF-268, > 100 µM (inactive). In addition, the GI50 in the assay with SK-OV-3 was > 100 µM (inactive); with SNB-75 it was 16.5 µM (inactive); in the assay with HCT-116, 24.1 µM (inactive); in the assay on K562, 14.4 µM (inactive).

As for `C1CC2=C(C1)[Se]C(=C1Sc3nsnc3S1)[Se]2`, the GI50 in the assay on NCI/ADR-RES is > 100 µM (inactive); in the assay with NCI-H460 it was > 100 µM (inactive); in the assay on OVCAR-4, > 100 µM (inactive); with LOX IMVI it was > 100 µM (inactive); in the assay with SK-MEL-5, > 100 µM (inactive); with HCT-15, 48.3 µM. The GI50 in the assay on SK-MEL-28, in the assay with UACC-257, in the assay with SF-295, with SW-620, in the assay on CAKI-1 and with COLO 205 was > 100 µM (inactive) throughout. Also, the GI50 in the assay with SF-268, in the assay on MCF7, in the assay on SK-OV-3, in the assay with NCI-H226, with SNB-75 and with HCT-116 was > 100 µM (inactive) in each case.

Take `COc1ccc(OC)c(SC(CC(=O)c2ccccc2)c2ccccc2)c1` (stereo not drawn): the GI50 in the assay with NCI/ADR-RES is 17.7 µM (inactive); in the assay on NCI-H460, 37.1 µM (inactive); with OVCAR-4, 61.4 µM (inactive); in the assay on SK-MEL-5, 13.8 µM (inactive); in the assay with HCT-15 it was 17.5 µM; in the assay on SK-MEL-28, 17.5 µM (inactive). The GI50 with UACC-257 was 15.9 µM (inactive); in the assay with SF-295, 15.2 µM (inactive); with SW-620, 3.73 µM (inactive); in the assay with CAKI-1 it was 13.9 µM (inactive); in the assay with COLO 205, 19.5 µM (inactive); in the assay with SF-268, 19.1 µM (inactive). The GI50 in the assay on MCF7 is 3.14 µM (inactive); in the assay on SK-OV-3, 20 µM (inactive); in the assay on NCI-H226, 14.3 µM (inactive); with SNB-75 it was 18.4 µM (inactive); in the assay with HCT-116, 3.66 µM (inactive); in the assay with K562, 4.91 µM (inactive).

On to `O=C1OC(c2ccccc2)=N/C1=C\c1ccc(Oc2ccc(Cl)c(Cl)c2)cc1`, for which the GI50 with NCI-H460 was 71.4 µM (inactive); in the assay on SK-MEL-5, 30.1 µM (inactive); in the assay with HCT-15 it was 43.2 µM; in the assay on SK-MEL-28, > 10 µM (inactive); in the assay with A498, > 100 µM (inactive); with UACC-257, > 100 µM (inactive). Further, the GI50 was 76.4 µM (inactive) in the assay on SF-295; 37.7 µM (inactive) in the assay with SW-620; > 100 µM (inactive) in the assay with COLO 205; 23.1 µM (inactive) in the assay on SF-268; 33.2 µM (inactive) in the assay on HCT-116; 24.4 µM (inactive) in the assay with K562.

With `COC(=O)C1=C(C)N2CCOC2(C)C(C(=O)OC)C1c1ccc[nH]1` (stereo not drawn), the GI50 with NCI-H460, in the assay on OVCAR-4, with SK-MEL-5, with SK-MEL-28, with UACC-257 and in the assay with SF-295 was > 100 µM (inactive) in each case. The GI50 with SW-620 is > 100 µM (inactive); in the assay with CAKI-1 it was > 100 µM (inactive); with COLO 205, > 100 µM (inactive); in the assay on SF-268 it was > 100 µM (inactive); in the assay with NCI-H226 it was > 100 µM (inactive); in the assay on SNB-75 it was 18.7 µM (inactive). Further, the GI50 with HCT-116 and in the assay on K562 was > 100 µM (inactive) each time.

For the compound `C=C1C(=O)O[C@H]2[C@H]1[C@@H](OC(=O)C=C(C)C)CC1=C[C@@H](C[C@@]3(C)O[C@@H]23)OC1=O`, the GI50 is 2.17 µM (inactive) in the assay on NCI/ADR-RES; 6.32 µM (inactive) in the assay with OVCAR-4; 2.27 µM (inactive) in the assay with LOX IMVI; 5.55 µM (inactive) with SK-MEL-5; 1.93 µM with HCT-15; 7.33 µM (inactive) with A498. The GI50 in the assay on UACC-257 was 2.18 µM (inactive); with SF-295, 13.4 µM (inactive); with SW-620 it was 1.43 µM (inactive); in the assay on CAKI-1 it was 3.14 µM (inactive); in the assay with SK-OV-3, 20.9 µM (inactive); in the assay with NCI-H226, 21.2 µM (inactive). Further, the values for the GI50 in the assay with SNB-75 and in the assay with HCT-116 were 18 µM (inactive) and 3.4 µM (inactive), respectively.

Regarding `NC(CCCCCCCCCCP(=O)(O)O)C(=O)O` (stereo not drawn), the GI50 in the assay with NCI/ADR-RES was > 100 µM (inactive); with NCI-H460, > 100 µM (inactive); in the assay on OVCAR-4 it was > 100 µM (inactive); in the assay on LOX IMVI it was > 100 µM (inactive); with SK-MEL-5, > 100 µM (inactive); in the assay on HCT-15, greater than 100 µM. Further, the GI50 was > 100 µM (inactive) in the assay with SK-MEL-28; > 100 µM (inactive) in the assay with UACC-257; > 100 µM (inactive) in the assay on SF-295; > 100 µM (inactive) with SW-620; 4.23 µM (inactive) with CAKI-1; > 100 µM (inactive) in the assay on COLO 205. The GI50 in the assay with SF-268 is > 10 µM (inactive); with MCF7, > 100 µM (inactive); in the assay on SK-OV-3, > 100 µM (inactive); with SNB-75 it was 7.73 µM (inactive); in the assay on HCT-116, > 100 µM (inactive); in the assay with K562, > 100 µM (inactive).

As to `Cc1ccc(S(=O)(=O)N(CC(=O)O)c2ccccc2)cc1`, the GI50 in the assay on NCI-H460 was > 100 µM (inactive); with OVCAR-4, > 100 µM (inactive); in the assay on LOX IMVI, > 100 µM (inactive); with SK-MEL-5 it was > 100 µM (inactive); in the assay with HCT-15 it was greater than 100 µM; in the assay on SK-MEL-28, > 100 µM (inactive). Besides, the GI50 with A498, in the assay with UACC-257, in the assay with SF-295, in the assay on SW-620, with CAKI-1 and with COLO 205 was > 100 µM (inactive) in each case. The GI50 with SF-268, with SK-OV-3, in the assay with SNB-75 and in the assay on K562 was > 100 µM (inactive) throughout.

As for `Cc1cc(C)cc(Sc2c([N+](=O)[O-])ncn2C)c1`, the GI50 was 18.2 µM (inactive) with NCI-H460; 15.4 µM (inactive) in the assay on OVCAR-4; 11.5 µM (inactive) in the assay on LOX IMVI; 13.8 µM (inactive) in the assay with SK-MEL-5; 15.2 µM (inactive) in the assay on SK-MEL-28; 20.9 µM (inactive) with A498. In addition, the GI50 in the assay on UACC-257 is 14.2 µM (inactive); with SF-295 it was 21.9 µM (inactive); in the assay with SW-620, 14 µM (inactive); in the assay on CAKI-1, 25.9 µM (inactive); in the assay on COLO 205 it was 12.4 µM (inactive); with SF-268, 14.9 µM (inactive). Also, the GI50 is 23.8 µM (inactive) in the assay with SK-OV-3; 6.03 µM (inactive) in the assay with NCI-H226; 21.3 µM (inactive) with SNB-75; 13.8 µM (inactive) with HCT-116; 11.2 µM (inactive) in the assay on K562.

For the origin of these results see ChEMBL document CHEMBL1201862, “PubChem BioAssay data set” (2004).
